Reference: patent US20250134921A1, “[…] ACID GLY[…] THEIR USES FOR TREATING INFECTIOUS DISEASES” (priority 2021, published 2025)

Tests used:
[1] = target: T1, SARS-CoV-2 spike S1 subunit (Severe acute respiratory syndrome coronavirus 2, UniProt P0DTC2); assay type: binding
T1 construct: 50 μL of S1-subunit protein solution (0.1 mg·mL^−1, Genscript Z03501); purchased Genscript Z03501

SARS-CoV-2 S1 subunit = target: T2, SARS-CoV-2 S1 subunit (Severe acute respiratory syndrome coronavirus 2, UniProt P0DTC2); test: biochemical; assay type: binding
T2 construct: 50 μL of S1-subunit protein solution (0.1 mg·mL^−1, Genscript Z03501); purchased Genscript Z03501

[2] = test system: UV-inactivated SARS-CoV-2 virions; assay type: binding
[3] = test system: VSV-SARS-CoV-2 (SARS-CoV-2 spike pseudotyped VSV); assay type: cell-based

Compound	binding probability (BP) in competition assay [1]	Kd (SARS-CoV-2 S1 subunit) [µM]	kon (SARS-CoV-2 S1 subunit; read-out: association rate (kon)) [M⁻¹ s⁻¹]	reduction in the binding frequency (BF) [2]	reduction of VSV-SARS-CoV-2 infectivity [3]
CC(=O)N[C@H]1C([C@H](O)[C@H](O)COC(C)=O)O[C@](O)(C(=O)O)C[C@H]1O (some centres unmarked) [Compound 9-AcSA, 9-O-acetyl-sialic acid]	significantly lower binding probability	5.7 ± 5	42000	20-30%	–
CC(=O)N[C@H]1[C@H]([C@H](O)[C@H](O)COC(C)=O)OC(O)(C(=O)O)C[C@@H]1O (some centres unmarked) [Compound 9-AcSA, 9-O-acetyl-sialic acid]	–	–	–	–	did not significantly reduce
